Key:
AMARE = assay: Herbicidal post-emergence action 1a (greenhouse pots, visual rating); type: in vivo, Amaranthus retroflexus; details: visual rating about 3 weeks after treatment
In short: (§1)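 Weeds and crops sown in sandy loam in greenhouse pots were sprayed post-emergence at the one-leaf stage (2–3 weeks after sowing) with WP or EC formulations plus 0.5% additive at 600 l/ha water, 320 and/or 80 g/ha. About 3 weeks later damage was rated visually against untreated controls (0% = no effect, 100% = dead).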

VIOTR = assay: Herbicidal pre-emergence action 2a (greenhouse pots, visual scoring); type: in vivo, Viola tricolor; details: dosage 320 g/ha, visual scoring after about 3 weeks vs untreated controls
In short: (§2)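 Dose levels were 320 g/ha and/or 80 g/ha, delivered as an aqueous spray of wettable powder or emulsion concentrate plus 0.5% additive onto soil over sown seeds. Plants grew under good greenhouse conditions for about 3 weeks before visual percentage rating versus untreated pots.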

ECHCG = assay: Herbicidal post-emergence action 1b (twin sowing, 1280 g/ha); type: in vivo, Echinochloa crus-galli; details: dosage 1280 g/ha, visual rating about 3 weeks after treatment
In short: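 Post-emergence foliar spray on one-leaf weeds grown two species per pot in sandy loam; ~3 weeks later, visual rating from 0% (as control) to 100% (plants died).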

LOLRI [1] = assay: Herbicidal pre-emergence action 2a (greenhouse pots, visual scoring); type: in vivo, Lolium rigidum; details: dosage 320 g/ha, visual scoring after about 3 weeks vs untreated controls
In short: as §2

SETVI [2] = assay: as above; type: in vivo, Setaria viridis; details: dosage 320 g/ha, visual scoring after about 3 weeks vs untreated controls
In short: as §2

SETVI [3] = assay: Herbicidal post-emergence action 1a (greenhouse pots, visual rating); type: in vivo, Setaria viridis; details: rated visually about 3 weeks after treatment, 100% = plants have died, 0% = like control plants
In short: as §1

LOLRI [4] = assay: as above; type: in vivo, Lolium rigidum; details: rated visually about 3 weeks after treatment, 100% = plants have died, 0% = like control plants
In short: as §1

harmful plants = assay: Herbicidal post-emergence action 1a, summary across species; type: in vivo; details: Tables A1 to A15 (320 g/ha and/or 80 g/ha)
Protocol: a) Seeds of monocotyledonous and dicotyledonous weeds and crop plants are placed in sandy loam in plastic or organic plant pots, covered with soil and cultivated in a greenhouse under controlled growth conditions. 2 to 3 weeks after sowing, the test plants are treated at the one-leaf stage. The compounds of the invention, formulated in the form of wettable powders (WP) or as emulsion concentrates (EC), are then sprayed onto the green parts of the plants as aqueous suspension or emulsion with addition of 0.5% additive at a water application rate of 600 1/ha (converted). After the test plants have been kept in the greenhouse under optimum growth conditions for about 3 weeks, the activity of the preparations is rated visually in comparison to untreated controls. For example, 100% activity=the plants have died, 0% activity=like control plants.
Tables A1 to A15 below show the effects of selected compounds of the general formula (I) according to Tables 1 and 2 on various harmful plants and an application rate corresponding to 320 g/ha and/or 80 g/ha, which were obtained by the experimental procedure mentioned above.
For example, compound nos. I-05, I-07, I-08, I-10, I-12, I-16, I-17, I-22, I-36, I-37, I-39 and I-40 in the post-emergence method have very good action (80% to 100% herbicidal activity) against harmful plants such as Alopecurus myosuroides, Amaranthus retroflexus, Avena fatua, Lolium rigidum, Polygonum convolvulus, Setaria viridis, Veronica persica and Viola tricolor at an application rate of 0.32 kg of active substance per hectare.

DIGSA = assay: Herbicidal post-emergence action 1a (greenhouse pots, visual rating); type: in vivo, Digitaria sanguinalis; details: rated visually about 3 weeks after treatment, 100% = plants have died, 0% = like control plants
In short: as §1

AVEFA = assay: as above; type: in vivo, Avena fatua; details: rated visually about 3 weeks after treatment, 100% = plants have died, 0% = like control plants
In short: as §1

POLCO = assay: Herbicidal pre-emergence action 2a (greenhouse pots, visual scoring); type: in vivo, Polygonum convolvulus; details: dosage 320 g/ha, visual scoring after about 3 weeks vs untreated controls
In short: as §2

SMILES: COC(=O)[C@@H](C)Oc1nn(-c2cnccn2)c(-c2ccc(F)nc2)c1Cl [Example I-36]
- Post-emergence action against AMARE in % (AMARE; dosage 80 g/ha): 90%
- Post-emergence action against AMARE in % (AMARE; dosage 320 g/ha): 90%
- Pre-emergence action against VIOTR in % (VIOTR): 100%
- Post-emergence action at 1280 g/ha against ECHCG in % (ECHCG): 100%
- Pre-emergence action against LOLRI in % (LOLRI [1]): 100%
- Pre-emergence action against SETVI in % (SETVI [2]): 100%
- Post-emergence action against SETVI in % (SETVI [3]; Dosage 320 g/ha): 100%
- Post-emergence action against LOLRI in % (LOLRI [4]; Dosage 320 g/ha): 90%
- herbicidal efficacy against harmful plants in the case of post-emergence treatment (in words) (harmful plants): good herbicidal efficacy
- Post-emergence action against DIGSA in % (DIGSA; Dosage 80 g/ha): 80%
- Post-emergence action against DIGSA in % (DIGSA; Dosage 320 g/ha): 90%
- Post-emergence action against AVEFA in % (AVEFA; Dosage 80 g/ha): 90%
- Post-emergence action against AVEFA in % (AVEFA; Dosage 320 g/ha): 90%
- Pre-emergence action against POLCO in % (POLCO): 100%

SMILES: COC(=O)[C@@H](C)Oc1nn(-c2cnccn2)c(-c2ccnc(F)c2)c1Br [Example I-34]
- Post-emergence action against AMARE in % (AMARE; dosage 320 g/ha): 80%
- Pre-emergence action against VIOTR in % (VIOTR): 100%
- Post-emergence action at 1280 g/ha against ECHCG in % (ECHCG): 100%
- Pre-emergence action against LOLRI in % (LOLRI [1]): 100%
- Pre-emergence action against SETVI in % (SETVI [2]): 100%
- Post-emergence action against SETVI in % (SETVI [3]; Dosage 80 g/ha): 80%
- Post-emergence action against SETVI in % (SETVI [3]; Dosage 320 g/ha): 90%
- Post-emergence action against LOLRI in % (LOLRI [4]; Dosage 320 g/ha): 80%
- herbicidal efficacy against harmful plants in the case of post-emergence treatment (in words) (harmful plants): good herbicidal efficacy
- Post-emergence action against DIGSA in % (DIGSA; Dosage 320 g/ha): 80%
- Post-emergence action against AVEFA in % (AVEFA; Dosage 320 g/ha): 90%
- Pre-emergence action against POLCO in % (POLCO): 100%

SMILES: COC(=O)C(C)Oc1nn(-c2cnccn2)c(-c2ccc(F)c(F)c2)c1Br (racemic) [Example I-16]
- Post-emergence action against AMARE in % (AMARE; dosage 320 g/ha): 90%
- Pre-emergence action against VIOTR in % (VIOTR): 100%
- Post-emergence action at 1280 g/ha against ECHCG in % (ECHCG): 100%
- Pre-emergence action against LOLRI in % (LOLRI [1]): 100%
- Pre-emergence action against SETVI in % (SETVI [2]): 100%
- Post-emergence action against SETVI in % (SETVI [3]; Dosage 80 g/ha): 80%
- Post-emergence action against SETVI in % (SETVI [3]; Dosage 320 g/ha): 90%
- Post-emergence action against LOLRI in % (LOLRI [4]; Dosage 320 g/ha): 90%
- herbicidal efficacy against harmful plants in the case of post-emergence treatment (in words) (harmful plants): good herbicidal efficacy
- Post-emergence action against DIGSA in % (DIGSA; Dosage 320 g/ha): 90%
- Post-emergence action against AVEFA in % (AVEFA; Dosage 80 g/ha): 90%
- Post-emergence action against AVEFA in % (AVEFA; Dosage 320 g/ha): 100%
- Pre-emergence action against POLCO in % (POLCO): 90%

SMILES: COC(=O)[C@@H](C)Oc1nn(-c2cnccn2)c(-c2cccc(F)c2)c1Br [Example I-20]
- Post-emergence action against AMARE in % (AMARE; dosage 80 g/ha): 90%
- Post-emergence action against AMARE in % (AMARE; dosage 320 g/ha): 100%
- Pre-emergence action against VIOTR in % (VIOTR): 90%
- Post-emergence action at 1280 g/ha against ECHCG in % (ECHCG): 100%
- Pre-emergence action against SETVI in % (SETVI [2]): 100%
- Post-emergence action against SETVI in % (SETVI [3]; Dosage 80 g/ha): 80%
- Post-emergence action against SETVI in % (SETVI [3]; Dosage 320 g/ha): 90%
- Post-emergence action against LOLRI in % (LOLRI [4]; Dosage 80 g/ha): 90%
- Post-emergence action against LOLRI in % (LOLRI [4]; Dosage 320 g/ha): 100%
- herbicidal efficacy against harmful plants in the case of post-emergence treatment (in words) (harmful plants): good herbicidal efficacy
- Post-emergence action against DIGSA in % (DIGSA; Dosage 80 g/ha): 80%
- Post-emergence action against DIGSA in % (DIGSA; Dosage 320 g/ha): 90%
- Post-emergence action against AVEFA in % (AVEFA; Dosage 80 g/ha): 90%
- Post-emergence action against AVEFA in % (AVEFA; Dosage 320 g/ha): 90%
- Pre-emergence action against POLCO in % (POLCO): 80%

SMILES: COC(=O)C(C)Oc1nn(-c2cnccn2)c(-c2ccc(F)nc2)c1Br (racemic) [Example I-12]
- Post-emergence action against AMARE in % (AMARE; dosage 80 g/ha): 80%
- Post-emergence action against AMARE in % (AMARE; dosage 320 g/ha): 80%
- Pre-emergence action against VIOTR in % (VIOTR): 100%
- Post-emergence action at 1280 g/ha against ECHCG in % (ECHCG): 90%
- Pre-emergence action against LOLRI in % (LOLRI [1]): 100%
- Pre-emergence action against SETVI in % (SETVI [2]): 100%
- Post-emergence action against SETVI in % (SETVI [3]; Dosage 320 g/ha): 80%
- Post-emergence action against LOLRI in % (LOLRI [4]; Dosage 320 g/ha): 90%
- herbicidal efficacy against harmful plants in the case of post-emergence treatment (in words) (harmful plants): good herbicidal efficacy
- Post-emergence action against DIGSA in % (DIGSA; Dosage 320 g/ha): 80%
- Post-emergence action against AVEFA in % (AVEFA; Dosage 80 g/ha): 100%
- Post-emergence action against AVEFA in % (AVEFA; Dosage 320 g/ha): 100%
- Pre-emergence action against POLCO in % (POLCO): 90%

SMILES: CCOC(=O)COc1nn(-c2cnccn2)c(-c2ccc(F)nc2)c1Cl [Example I-53]
- Post-emergence action against AMARE in % (AMARE; dosage 80 g/ha): 80%
- Pre-emergence action against VIOTR in % (VIOTR): 100%
- Post-emergence action at 1280 g/ha against ECHCG in % (ECHCG): 100%
- Pre-emergence action against LOLRI in % (LOLRI [1]): 80%
- Pre-emergence action against SETVI in % (SETVI [2]): 100%
- Post-emergence action against SETVI in % (SETVI [3]; Dosage 80 g/ha): 80%
- herbicidal efficacy against harmful plants in the case of post-emergence treatment (in words) (harmful plants): good herbicidal efficacy
- Post-emergence action against DIGSA in % (DIGSA; Dosage 80 g/ha): 90%
- Pre-emergence action against POLCO in % (POLCO): 90%

SMILES: COC(=O)C(C)Oc1nn(-c2cnccn2)c(-c2cncc(F)c2)c1Br (racemic) [Example I-08]
- Post-emergence action against AMARE in % (AMARE; dosage 320 g/ha): 80%
- Pre-emergence action against VIOTR in % (VIOTR): 100%
- Pre-emergence action against LOLRI in % (LOLRI [1]): 100%
- Pre-emergence action against SETVI in % (SETVI [2]): 100%
- Post-emergence action against SETVI in % (SETVI [3]; Dosage 80 g/ha): 80%
- Post-emergence action against SETVI in % (SETVI [3]; Dosage 320 g/ha): 80%
- Post-emergence action against LOLRI in % (LOLRI [4]; Dosage 320 g/ha): 90%
- herbicidal efficacy against harmful plants in the case of post-emergence treatment (in words) (harmful plants): good herbicidal efficacy
- Post-emergence action against DIGSA in % (DIGSA; Dosage 320 g/ha): 80%
- Post-emergence action against AVEFA in % (AVEFA; Dosage 80 g/ha): 100%
- Post-emergence action against AVEFA in % (AVEFA; Dosage 320 g/ha): 100%
- Pre-emergence action against POLCO in % (POLCO): 100%

SMILES: COC(=O)COc1nn(-c2cnccn2)c(-c2cncc(F)c2)c1Br [Example I-07]
- Post-emergence action against AMARE in % (AMARE; dosage 320 g/ha): 80%
- Pre-emergence action against VIOTR in % (VIOTR): 100%
- Pre-emergence action against LOLRI in % (LOLRI [1]): 100%
- Pre-emergence action against SETVI in % (SETVI [2]): 100%
- Post-emergence action against SETVI in % (SETVI [3]; Dosage 80 g/ha): 80%
- Post-emergence action against SETVI in % (SETVI [3]; Dosage 320 g/ha): 80%
- Post-emergence action against LOLRI in % (LOLRI [4]; Dosage 80 g/ha): 80%
- Post-emergence action against LOLRI in % (LOLRI [4]; Dosage 320 g/ha): 90%
- herbicidal efficacy against harmful plants in the case of post-emergence treatment (in words) (harmful plants): good herbicidal efficacy
- Post-emergence action against DIGSA in % (DIGSA; Dosage 80 g/ha): 80%
- Post-emergence action against DIGSA in % (DIGSA; Dosage 320 g/ha): 90%
- Post-emergence action against AVEFA in % (AVEFA; Dosage 80 g/ha): 100%
- Post-emergence action against AVEFA in % (AVEFA; Dosage 320 g/ha): 100%
- Pre-emergence action against POLCO in % (POLCO): 90%

From US20230167088A1, “1-PYRAZINYLPYRAZOLYL-3-OXYALKYL ACIDS AND THEIR DERIVATIVES, AND THEIR USE FOR CONTROL OF UNDESIRED PLANT GROWTH” (BAYER AKTIENGESELLSCHAFT, priority 2020, published 2023)
